Data reported in patent US8506984B2, “Therapeutic agent elution control process” (Cordis Corporation, priority 2006, dated 2013).
Values belong to the compound of their own block, whether it stands above or below them.

Columns and labels:
[1] = tested on: human coronary artery smooth muscle cells; assay: Proliferation of non-synchronized cultured human coronary artery smooth muscle cells stimulated with two percent fetal bovine serum; assay type: cell-based; conditions: for effect of added agent on anti-proliferative rapamycin dose response: added to rapamycin-treated cells
Source text: The multiple curves represent various concentrations of mycophenolic acid ranging from zero to one thousand nanomolar concentrations. […] This potentiation observed in cultured coronary artery smooth muscle cells preferably translates to an enhancement in anti-restenotic efficacy following vascular injury and a reduction in the required amount of either agent to achieve the desired anti-restenotic effect.
FIG. 58 illustrates, in graphical format, the anti-proliferative activity of cladribine in non-synchronized cultured human coronary artery smooth muscle cells stimulated with two percent fetal bovine serum.
The multiple curves represent various concentrations of cladribine ranging from zero to nine hundred nanomolar concentrations. […] As illustrated, the percent inhibition increases substantially as the dose of cladribine increases.

[2] = tested on: cell viability; assay: Cell viability assay; assay type: cell-based
Source text: (§1) The multiple curves represent various concentrations of topotecan ranging from zero to three hundred nanomolar concentrations.
(§2) The multiple curves represent various concentrations of etoposide ranging from zero to eight hundred nanomolar concentrations.

[3] = Porcine drug elution PK study of dual drug eluting stent; assay type: in vivo; conditions: after eight (8) days of implantation; single-layer sirolimus/cilostazol coating (FIG. 83), 100 μg BMA overcoat
Source text: Another critical parameter for the performance of the thrombus resistance of a device coated with cilostazol is the duration of the drug release from the coating. This is of particular significance in the two weeks after device implantation. In the porcine drug elution PK studies of the dual drug eluting coating, both cilostazol and sirolius were slowly released from the coating, resulting in a sustained drug release profile. The purpose of the porcine PK study is to assess the local pharmacokinetics of a drug eluting stent at a given implantation time. Normally three stents are implanted in three different coronary arteries in a pig for a given time point and then retrieved for total drug recovery analysis. The stents are retrieved at predetermined time points; namely, 1, 3 and 8 days. The stents are extracted and the total amount of drug remaining on the stents is determined by analysis utilizing HPLC (high performance liquid chromatography) for total drug amount. The difference between the original amount of drug on the stent and the amount of drug retrieved at a given time represents the amount of drug released in that period. The continuous release of drug into surrounding arterial tissue is what prevents the neointimal growth and restenosis in the coronary artery. A normal plot represents the percentage of total drug released (%, y-axis) vs. time of implantation (day, x-axis). […]

[4] = Drug concentration in liquid formulations (liquid chromatography / HPLC); assay type: physicochemical; conditions: Vitamin E TPGS excipient, water and ethanol (<2%) co-solvents
Source text: In accordance with exemplary embodiments of the present invention, a series of liquid formulations were developed for the local or regional delivery of water insoluble compounds such as sirolimus and its analogs, including CCI-779, ABT-578 and everolimus, through weeping balloons and catheter injection needles. […] These liquid formulations increase the apparent solubility of the pharmacologically active but water insoluble compounds by two to four orders of magnitude as compared to the solubility limits of the compounds in water. These liquid formulations rely on the use of a very small amount of organic solvents such as Ethanol (typically less than two percent) and a larger amount of safe amphiphilic (of or relating to a molecule having a polar, water soluble group attached to a non-polar, water insoluble […]) excipients such as polyethylene glycol (PEG 200, PEG 400) and vitamin E TPGS to enhance the solubility of the compounds. These liquid formulations of highly water insoluble compounds are stable and readily flowable at room temperature. Certain excipients, such as Vitamin E TPGS and BHT may be utilized to enhance the storage stability of sirolimus compounds through their anti-oxidation properties. […]

[5] = tested on: human coronary artery smooth muscle cells; assay: Proliferation of synchronized cultured human coronary artery smooth muscle cells stimulated with two percent fetal bovine serum; assay type: cell-based; conditions: for effect of added agent on anti-proliferative rapamycin dose response: added to rapamycin-treated cells
Source text: as §1, §2
The multiple curves represent various concentrations of Panzem® ranging from zero to 100 micromolar concentrations.

[6] = tested on: human coronary artery smooth muscle cell; assay: MTS cytotoxicity assay; assay type: cell-based; conditions: concentrations up to 30,000.00 nanomolar
Source text: Typically, a control is utilized to determine baseline toxicity.

[7] = In vitro release from sirolimus/cilostazol single layer stent coating; assay type: physicochemical; conditions: single-layer sirolimus/cilostazol coating (FIG. 83)
[8] = tested on: tumor cell lines; conditions: cited from earlier work
[9] = tested on: human coronary artery smooth muscle cell; assay: Human coronary artery smooth muscle cell proliferation, in vitro cell culture study (trichostatin A); assay type: cell-based
Source text: FIG. 51 is a graph of the inhibition of coronary artery smooth muscle cells by trichostatin A in a cell culture study.

SMILES: Nc1nc(Cl)nc2c1ncn2[C@H]1C[C@H](O)[C@@H](CO)O1 [Cladribine, 2-chlorodeoxyadenosine]
effect of added agent on anti-proliferative rapamycin dose response [1]: potentiate the anti-proliferative activity of rapamycin | inhibition of human coronary artery smooth muscle cell proliferation ([1]; two percent fetal bovine serum): completely inhibits

SMILES: COc1c(C)c2c(c(O)c1C/C=C(\C)CCC(=O)O)C(=O)OC2 [mycophenolic acid]
effect of added agent on anti-proliferative rapamycin dose response [1]: potentiates the anti-proliferative activity of rapamycin

SMILES: COc1cc([C@@H]2c3cc4c(cc3[C@@H](O[C@@H]3O[C@@H]5CO[C@@H](C)O[C@H]5[C@H](O)[C@H]3O)[C@H]3COC(=O)[C@H]23)OCO4)cc(OC)c1O [etoposide]
cytotoxicity in cell viability assay ([2]; concentrations up to ten micromolar): non-cytotoxic | effect of added agent on anti-proliferative rapamycin dose response [1]: potentiate the anti-proliferative activity of rapamycin

drug remaining in the drug coating [3]: ~80%
SMILES: CO[C@H]1C[C@@H]2CC[C@@H](C)[C@@](O)(O2)C(=O)C(=O)N2CCCC[C@H]2C(=O)O[C@H]([C@H](C)C[C@@H]2CC[C@@H](O)[C@H](OC)C2)CC(=O)[C@H](C)/C=C(\C)[C@@H](O)[C@@H](OC)C(=O)[C@H](C)C[C@H](C)/C=C/C=C/C=C/1C [Rapamycin, rapamycin]

concentration in the final solution (HPLC assay) [4]: 15000 µg/mL
SMILES: CO[C@H]1C[C@@H]2CC[C@@H](C)[C@@](O)(O2)C(=O)C(=O)N2CCCC[C@H]2C(=O)O[C@H]([C@H](C)C[C@@H]2CC[C@@H](OC(=O)C(C)(CO)CO)[C@H](OC)C2)CC(=O)[C@H](C)/C=C(\C)[C@@H](O)[C@@H](OC)C(=O)[C@H](C)C[C@H](C)/C=C/C=C/C=C/1C [CCI-779]

SMILES: COc1cc2c(cc1O)CC[C@@H]1[C@@H]2CC[C@]2(C)[C@@H](O)CC[C@@H]12 [Panzem®, 2-methoxyestradiol]
effect of added agent on anti-proliferative rapamycin dose response [5]: increases the percent of inhibition of rapamycin alone | inhibition of human coronary artery smooth muscle cell proliferation in vitro ([5]; two percent fetal bovine serum): extremely effective inhibitor | human coronary artery smooth muscle cell survival (MTS) [6]: do not reduce human coronary artery smooth muscle cell survival

SMILES: CC[C@@]1(O)C(=O)OCc2c1cc1n(c2=O)Cc2cc3c(CN(C)C)c(O)ccc3nc2-1 [topotecan]
cytotoxicity in cell viability assay ([2]; concentrations up to one micromolar): non-cytotoxic | effect of added agent on anti-proliferative rapamycin dose response [5]: potentiate the anti-proliferative activity of rapamycin

SMILES: O=C1CCc2cc(OCCCCc3nnnn3C3CCCCC3)ccc2N1 [cilostazol, 6[4-(1-cyclohexyl-1H-tetrazol-5-yl)-butoxy]-3,4-dihydro-2-(1H)-quinolinone]
in vitro release [7]: ~35% | drug remaining in the drug coating [3]: ~80%

SMILES: CC(/C=C/C(=O)NO)=C\[C@@H](C)C(=O)c1ccc(N(C)C)cc1 [trichostatin A]
anti-proliferative IC50 [8]: low nM range | inhibition of human coronary artery smooth muscle cell proliferation [9]: completely inhibit | IC50 ([9]; read-out: anti-proliferative IC50): ~6 nM
